{
  "source": "patent US20090291048A1",
  "about": "“LEUKOCYTE-BINDING POLYPEPTIDES AND USES THEREOF” (Baker IDI Heart and Diabetes Institute Holdings Limited, priority 2005, published 2009)",
  "test_system": "GPIIb/IIIa (αIIbβ3, CD41/CD61), native or GFFKR-deleted, on CHO cells",
  "sequence (P08514 32-887 limits assumed, stated change not applied)": "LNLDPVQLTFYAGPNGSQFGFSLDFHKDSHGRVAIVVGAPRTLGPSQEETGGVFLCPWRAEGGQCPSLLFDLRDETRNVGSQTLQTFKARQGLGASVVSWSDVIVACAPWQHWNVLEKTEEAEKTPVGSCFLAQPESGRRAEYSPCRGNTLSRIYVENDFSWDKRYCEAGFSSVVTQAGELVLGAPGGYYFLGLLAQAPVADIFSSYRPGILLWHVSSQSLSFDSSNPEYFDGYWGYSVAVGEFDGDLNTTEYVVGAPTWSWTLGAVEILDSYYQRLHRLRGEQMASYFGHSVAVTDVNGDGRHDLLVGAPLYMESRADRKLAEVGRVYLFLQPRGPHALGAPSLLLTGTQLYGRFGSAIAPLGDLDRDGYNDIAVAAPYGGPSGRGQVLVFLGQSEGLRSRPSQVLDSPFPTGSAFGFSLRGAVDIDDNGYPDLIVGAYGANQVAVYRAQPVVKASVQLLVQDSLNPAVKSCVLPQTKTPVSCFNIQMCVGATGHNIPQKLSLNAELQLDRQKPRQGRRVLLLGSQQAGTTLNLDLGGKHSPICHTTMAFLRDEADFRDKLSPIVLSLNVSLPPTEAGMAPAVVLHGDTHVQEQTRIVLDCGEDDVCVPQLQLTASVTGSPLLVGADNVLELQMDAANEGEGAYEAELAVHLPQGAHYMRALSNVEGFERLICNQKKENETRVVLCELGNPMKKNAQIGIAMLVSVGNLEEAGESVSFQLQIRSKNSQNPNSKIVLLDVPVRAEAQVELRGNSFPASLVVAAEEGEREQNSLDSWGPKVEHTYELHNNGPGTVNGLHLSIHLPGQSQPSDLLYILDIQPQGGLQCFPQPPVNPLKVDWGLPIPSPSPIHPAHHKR",
  "sequence (P08514 891-1019 limits assumed, stated change not applied)": "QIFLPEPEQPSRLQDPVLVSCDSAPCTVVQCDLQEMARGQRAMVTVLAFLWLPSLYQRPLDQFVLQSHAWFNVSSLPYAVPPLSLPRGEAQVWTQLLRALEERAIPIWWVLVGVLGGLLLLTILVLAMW",
  "sequence (P05106 27-788, stated change not applied, further chain)": "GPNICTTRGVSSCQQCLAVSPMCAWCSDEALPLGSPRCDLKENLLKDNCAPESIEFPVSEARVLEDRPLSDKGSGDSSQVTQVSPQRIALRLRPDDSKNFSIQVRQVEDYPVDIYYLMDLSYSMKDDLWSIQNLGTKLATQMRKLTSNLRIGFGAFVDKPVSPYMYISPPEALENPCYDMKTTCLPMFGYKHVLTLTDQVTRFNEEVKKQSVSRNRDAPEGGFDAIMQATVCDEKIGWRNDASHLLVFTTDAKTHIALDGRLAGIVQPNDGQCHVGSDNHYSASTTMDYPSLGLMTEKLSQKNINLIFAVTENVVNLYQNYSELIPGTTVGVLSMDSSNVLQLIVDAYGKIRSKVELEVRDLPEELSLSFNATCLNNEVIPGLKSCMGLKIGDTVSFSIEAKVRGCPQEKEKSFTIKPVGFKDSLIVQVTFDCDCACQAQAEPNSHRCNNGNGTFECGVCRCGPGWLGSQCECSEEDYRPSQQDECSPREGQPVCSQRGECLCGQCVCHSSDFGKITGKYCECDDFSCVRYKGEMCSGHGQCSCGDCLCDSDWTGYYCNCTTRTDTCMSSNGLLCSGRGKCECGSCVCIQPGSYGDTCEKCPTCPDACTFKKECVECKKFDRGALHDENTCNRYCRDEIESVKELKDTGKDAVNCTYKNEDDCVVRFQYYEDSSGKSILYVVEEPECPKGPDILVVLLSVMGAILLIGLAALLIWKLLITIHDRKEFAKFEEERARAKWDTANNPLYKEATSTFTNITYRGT",
  "assay": "Flow cytometry cross-reactivity with GPIIb/IIIa-expressing CHO cells",
  "assay_type": "binding",
  "conditions": "CHO cells with native (non-activated) or GFFKR-deleted (activated) GPIIb/IIIa",
  "method": "Cross-reactivity with another fibrinogen binding integrin was assessed in flow cytometry using CHO cells expressing either a GFFKR-deleted and thereby activated GPIIb/IIIa or the native and thereby non-activated platelet integrin GPIIb/IIIa (details of cell generation have been described previously).^30,31 The expression of the activated conformation was determined by the binding of the activation-specific antibody Pac-1. MAN-1 binding was measured by an Alexa Fluor 488-conjugated anti-His-tag secondary antibody. […] Thus, no cross-reactivity to GPIIb/IIIa was seen. A typical result out of three experiments is shown.\nSince one of the Mac-1 ligands, fibrinogen, also binds to the platelet integrin GPIIb/IIIa (αIIIbβ3, CD41/CD61) potential cross-reactivity of MAN-1 with this integrin was also evaluated. For this purpose, recombinant CHO cell lines were used, expressing native, non-activated and GFFKR-deleted, activated GPIIb/IIIa as described elsewhere (O'Toole et al J. Cell Biol. 1994; 124:1047-1059; Peter et al, J Exp Med. 1995; 181:315-326; Tadokoro et al Science. 2003; 302:103-106).",
  "data": [
    {"substance": "Pac-1", "values": [
      {"measurement": "Binding to GPIIb/IIIa", "result": "binds to the activated GPIIb/IIIa"}
    ]}
  ]
}
